Measured values published in patent publication US7378246B2, “Methods and compositions for regulating adipogenesis” (The Board of Trustees of the Leland Stanford Junior …, priority 2002, dated 2008).
Where a name gives a salt, the structure may show the parent alone.

Columns and labels:
Format in all cases: cell-based
PPARγ2 promoter = PPARγ2 promoter luciferase reporter assay in NIH-3T3 cells; conditions: for repression of PPARγ2 promoter activity by DEC1 fragments: 0.6-kb PPARγ2 promoter luciferase, co-transfected DEC1 fragments, 0.3 μg DNA each (FIG. 6A)
Protocol: The luciferase reporter construct pX2) under the control of the −603 to +62 PPARγ2 proximal promoter fragment (PPAR) or other deletional subclones was used as described (Tong et al., 2000). NIH-3T3 cells were transiently co-transfected with 0.3 μg each of pXP2 or PPAR and pcDNA3.1His construct expressing a DEC1 fragment using LipofectAmine Plus reagents (Life Technologies). Luciferase activities in cell lysates were measured in triplicates after 40-48 hr of incubation using Monolight 2010 Luminometer (Analytical Luminescence Laboratory, Ann Arbor, Mich.). The luciferase activity is expressed in relation to protein concentrations that vary little from well to well. Alternatively, a Renilla luciferase reporter was co-transfected as a control for transfection efficiency.

PPARγ2 = PPARγ2 mRNA expression in L1 cells, Northern blotting; conditions: for PPARγ2 expression in L1 cells with ectopic expression: retroviral infection, RNA on Day 2 after IDM stimulation (FIG. 7B); for PPARγ2 expression in L1 cells: 50 μM CoCl2 or 100 μM DFO during induction (FIG. 3C)
Protocol: Total cellular RNA was isolated with Trizol reagent (Life Technologies). The following plasmids were used for cDNA template preparations by restriction digest: MSV-C/EBPβ and MSV-C/EBPδ (S. L. McKnight, Univ. Texas Southwestern Medical Center, Dallas, Tex.), pSVsport-PPARγ2 (B. M. Spiegelman), pBS-Stra13 (P. Chambon, INSERM, Strasbourg, France). Hybridization was carried out at 65° C. for 6 to 12 hr. The radioactive blot was visualized on Storm 860 PhosphoImager (Molecular Dynamics, Sunnyvale, Calif.).

3T3-L1 preadipocytes = test: Adipocyte differentiation of 3T3-L1 (L1) cells, Oil Red O staining; conditions: for adipocyte differentiation of L1 cells on retroviral overexpression: retroviral infection, vs vector control pLXSN, stained Day 5 (FIG. 7A); for differentiation of C/EBPβ-expressing L1 cells: agent present for first 2 days of adipogenic induction, 50 μM CoCl2 or 100 μM DFO (FIG. 4B); for differentiation and/or fat accumulation of C/EBPβ-expressing L1 cells: continuous presence (6 days), 50 μM CoCl2 or 100 μM DFO, 20% O2 (FIG. 4B); for differentiation of PPARγ2-expressing L1 cells: stimulated by rosiglitazone, 50 μM CoCl2 or 100 μM DFO for 6 days (FIG. 4C)
Protocol: Based on previously described procedure (Wu et al., 1996), L1 cells were maintained in GM for 2 days after confluence. The confluent cells were treated (day 0) with differentiation medium (DM) containing 10% FBS, 10 μg/ml INS, 1 μM DEX and 0.5 mM MIX in DMEM for 2 days. Cells were then maintained in DMEM containing 10% FBS and 1 μg/ml INS, and the medium was replaced every other day.
(§1) To evaluate the effects of hypoxia on adipogenesis, cells were maintained at 20% O2 in standard incubator, 2% O2 in standard incubator or 0.01% O2 in an anaerobic chamber immediately following treatment with DM. Alternatively, CoCl2 or DFO was added to DM at indicated concentrations either during the initial stage of stimulation or for the entire course of differentiation.
(§2) For visualization of differentiated adipocytes, cells were washed with phosphate-buffered saline (PBS) and stained in 60% of the Oil Red O stock solution (0.5 g Oil Red O in 100 ml of isopropanol) for 30 min at 37° C. Cells were briefly washed in 60% isopropanol and then rinsed in distilled water for microscopic observation and photography.
Retroviruses were produced using the phoenix cell system (Baker et al., 1992; Pear et al., 1993). L1 cells at 30-50% confluence were retrovirally infected 2-3 times with 8 μg/ml Polybrene by centrifugation at 1800-2000 rpm for 1 hr, followed by overnight incubation at 32° C. For generation of stable C/EBPβ-expressing cells, L1 cells were infected with pBABEpuro or pBABEpuro-C/EBPβ (S. R. Farmer, Boston University, Boston, Mass.), followed by selection with 1 μg/ml of puromycin (Sigma). The stable cells were grown to confluence and induced to differentiate as described above. For transient infection with pBABEpuro, pBABEpuor-PPARγ2 (B. M. Spiegelman, Harvard University, Boston, Mass.), pLXSN/HA-DEC1, pLXSN-DEC1 and pLXSN-N1, L1 cells were spin-infected and induced to differentiate as described above.

[1] = test system: Mouse embryonic fibroblast (MEF) cells; test: Adipocyte differentiation of MEFs, Oil Red O staining; conditions: for adipogenesis of MEF cells: DM with 5 μM rosiglitazone, CoCl2 25 μM or DFO 25 μM, stained Day 6 (FIG. 1C); for adipocyte differentiation of control-treated MEF cells: control adenovirus, same conditions as cre-treated MEFs (FIG. 2); for adipocyte differentiation of HIF-1α deficient MEF cells: cre-treated MEFs, CoCl2 up to 50 μM, DFO up to 25 μM, entire course (FIG. 2)
Protocol: MEFs were induced to differentiate 2 days after confluence (day 0) with DM supplemented with 5 μM rosiglitazone (Alexander et al., 1998; Lehmann et al., 1995). The medium was replaced on Day 3 with DMEM plus 10% FBS, 1 μg/ml INS and 5 μM rosiglitazone, and was then changed every other day. To remove the HIF-1α gene, subconfluent culture of MEFs with HIF-1α alleles flanked by loxP sites were treated with adenovirus containing cre recombinase or control adenovirus at the multiplicity of infection (MOI) of 50 as previously described (Seagroves et al., 2001). The treated MEF cells were grown to confluence for 2 days before they were induced to differentiate as above.
as §1, §2

[2] = agent for first 2 days of induction with IDM, CoCl2 50 μM, DFO 100 μM, stained Day 6 (FIG. 1B)
[3] = agent in treatment media throughout the course of induction (6 days)

DEC1: full-length DEC1 bHLH transcription repressor, expressed from pcDNA3.1-DEC1 or pLXSN-DEC1
repression of PPARγ2 promoter activity (PPARγ2 promoter; 0.6-kb PPARγ2 promoter (−603 to +62) luciferase, compared to the vector control, co-transfection (FIG. 6A)): 70% | repression of FLΔBrS promoter (BrS deleted) (PPARγ2 promoter; 0.6-kb promoter with BsrGI-StuI fragment deleted (FIG. 6B)): no longer repressed | PPARγ2 expression in L1 cells with ectopic expression (PPARγ2): repressed | adipocyte differentiation of L1 cells on retroviral overexpression (3T3-L1 preadipocytes): nearly complete inhibition of adipocyte differentiation

CN(CCOc1ccc(CC2SC(=O)NC2=O)cc1)c1ccccn1 (centres unmarked) [rosiglitazone]
MEF cells that differentiate into adipocytes ([1]; IDM supplemented with 5 μM rosiglitazone): 15-20%

[Cl][Co][Cl] [CoCl2, Cobalt Chloride]
PPARγ2 expression in L1 cells (PPARγ2): repressed | adipogenesis of MEF cells [1]: suppresses adipogenesis | adipocyte differentiation of control-treated MEF cells [1]: significantly represses differentiation | adipocyte differentiation of HIF-1α deficient MEF cells [1]: continue to undergo significant adipocyte differentiation | L1 cell differentiation (3T3-L1 preadipocytes; [2]): sufficient to prevent L1 cell differentiation | L1 cell differentiation (3T3-L1 preadipocytes; [3]): Inhibition of L1 cell differentiation | differentiation of C/EBPβ-expressing L1 cells (3T3-L1 preadipocytes): still able to differentiate into fat-laden adipocytes | differentiation and/or fat accumulation of C/EBPβ-expressing L1 cells (3T3-L1 preadipocytes): significantly reducing differentiation and/or fat accumulation | differentiation of PPARγ2-expressing L1 cells (3T3-L1 preadipocytes): majority of the PPARγ2-expressing cells differentiate into adipocytes

CC(=O)N(O)CCCCCNC(=O)CCC(=O)N(O)CCCCCNC(=O)CCC(=O)N(O)CCCCCN [DFO, deferoxamine mesylate]
PPARγ2 expression in L1 cells (PPARγ2): repressed | adipogenesis of MEF cells [1]: suppresses adipogenesis | adipocyte differentiation of control-treated MEF cells [1]: significantly represses differentiation | adipocyte differentiation of HIF-1α deficient MEF cells [1]: continue to undergo significant adipocyte differentiation | L1 cell differentiation (3T3-L1 preadipocytes; [2]): sufficient to prevent L1 cell differentiation | L1 cell differentiation (3T3-L1 preadipocytes; [3]): Inhibition of L1 cell differentiation | differentiation of C/EBPβ-expressing L1 cells (3T3-L1 preadipocytes): still able to differentiate into fat-laden adipocytes | differentiation and/or fat accumulation of C/EBPβ-expressing L1 cells (3T3-L1 preadipocytes): significantly reducing differentiation and/or fat accumulation | differentiation of PPARγ2-expressing L1 cells (3T3-L1 preadipocytes): majority of the PPARγ2-expressing cells differentiate into adipocytes

HA-DEC1: HA-tagged full-length DEC1 expressed from pLXSN/HA-DEC1
PPARγ2 expression in L1 cells with ectopic expression (PPARγ2): repressed | adipocyte differentiation of L1 cells on retroviral overexpression (3T3-L1 preadipocytes): nearly complete inhibition of adipocyte differentiation

B1: N1: N-terminal DEC1 fragment aa1-141 containing the bHLH domain (protein, UniProt O14503 1-141, looked up, fragment)
chain: MERIPSAQPPPACLPKAPGLEHGDLPGMYPAHMYQVYKSRRGIKRSEDSKETYKLPHRLIEKKRRDRINECIAQLKDLLPEHLKLTTLGHLEKAVVLELTLKHVKALTNLIDQQQQKIIALQSGLQAGELSGRNVETGQEM
PPARγ2 expression in L1 cells with ectopic expression (PPARγ2): repressed | adipocyte differentiation of L1 cells on retroviral overexpression (3T3-L1 preadipocytes): Significant inhibition

B2: C2: C-terminal DEC1 fragment aa201-412 (protein, UniProt O14503 201-412, looked up, fragment)
chain: FKEKPSSPAKGSEGPGKNCVPVIQRTFAHSSGEQSGSDTDTDSGYGGESEKGDLRSEQPCFKSDHGRRFTMGERIGAIKQESEEPPTKKNRMQLSDDEGHFTSSDLISSPFLGPHPHQPPFCLPFYLIPPSATAYLPMLEKCWYPTSVPVLYPGLNASAAALSSFMNPDKISAPLLMPQRLPSPLPAHPSVDSSVLLQALKPIPPLNLETKD
repression of PPARγ2 promoter activity by DEC1 fragments (PPARγ2 promoter): do not inhibit PPARγ2 promoter activity

B3: C1: C-terminal DEC1 fragment aa121-412 (protein, UniProt O14503 121-412, looked up, fragment)
chain: LQSGLQAGELSGRNVETGQEMFCSGFQTCAREVLQYLAKHENTRDLKSSQLVTHLHRVVSELLQGGTSRKPSDPAPKVMDFKEKPSSPAKGSEGPGKNCVPVIQRTFAHSSGEQSGSDTDTDSGYGGESEKGDLRSEQPCFKSDHGRRFTMGERIGAIKQESEEPPTKKNRMQLSDDEGHFTSSDLISSPFLGPHPHQPPFCLPFYLIPPSATAYLPMLEKCWYPTSVPVLYPGLNASAAALSSFMNPDKISAPLLMPQRLPSPLPAHPSVDSSVLLQALKPIPPLNLETKD
repression of PPARγ2 promoter activity by DEC1 fragments (PPARγ2 promoter): do not inhibit PPARγ2 promoter activity
